One assay has as its system mouse model of NDI. The experiment in a line: Mouse model of NDI induced with V2R antagonist OPC. It is filed as in vivo. The source says:
Mice were placed in metabolic cages for assessment of daily water intake and urine output. (A) daily water intake (n=4 mice per group). (B) Daily urine output (n=4 mice per group). (C) Urine osmolality (n=4 mice per group). (D) Urinary sPRR excretion (n=4 mice per group). Data are shown as mean±SE. In A-C, #P<0.05 vs. OPC alone; in D*P<0.05 vs. control. (E) Schematic illustration of the mechanism of action of sPRR. In the lumen of the distal nephron, sPRR binds FZD8 in a receptor complex on the apical membrane of principal cells, resulting in the activation of β-catenin, which promotes cAMP accumulation, ultimately leading to increased AQP2 transcription and enhanced urine concentration.
In support of this notion, it has been shown that exposure of the CD cells to AVP stimulates the release of sPRR. FIG. 8E provides a schematic illustration of the mechanism of action of sPRR in the CD principal cells.
Urinary or medium sPRR was determined using a commercially sPRR enzyme immunoassay (EIA) kit (catalog no. JP27782; Immuno-Biological Laboratories) according to the manufacturer's instructions.

The subject of another assay is Sprague-Dawley (SD) rats. Briefly: Water balance and renal AQP2 in SD rats, basal and water deprivation. The assay is classed as in vivo, rat. Here is the method: FIGS. 6A-6H show a role of the Wnt/β-catenin pathway in urine-concentrating capability in rats. SD Rats were administered vehicle, OMP, or XAV and were placed in metabolic cages for assessment of the state of water metabolism at basal condition (A-C) or after 24-h WD (D-H) (n=5 rats per group). At basal the condition, water intake (A), urine volume (B), and urine osmolality (C) were determined. (D-F) During 24-h WD, urine volume (D), urine osmolality (E), and body-weight (BW) changes (F) were monitored. (G and H) At the end of the experiment plasma osmolality (G) and Hct (H) were measured. *P<0.05 vs. control; #P<0.05 vs. WD alone.
FIGS. 7A-7F show an in vivo role of the Wnt/β-catenin pathway in the regulation of renal AQP2 expression during antidiuresis in rats. (A and B) To assess renal β-catenin activation by WD, the nuclear fraction of renal cortex (n=4 rats per group) (A) and the inner medulla (n=4 rats per group) (B) from control and dehydrated rats were subjected to immunoblotting analysis of β-catenin. (C-F) Immunoblotting analysis of AQP2 expression was performed on the renal cortex and the inner medulla of rats treated with vehicle or WD with (C) or without (D) OMP or with (E) or without (F) XAV (n=5 rats per group). Data are shown as mean±SE; *P<0.05 vs. control; #P<0.05 vs. WD. CO, cortex; IM, inner medulla.
To probe the in vivo role of β-catenin signaling in fluid homeostasis, OMP and XAV were administered to Sprague-Dawley (SD) rats under basal conditions and during […] water deprivation (WD) and evaluated their impact on water balance.
Renal tissues were lysed and subsequently sonicated. Protein concentrations were determined using Coomassie reagent. Forty micrograms of protein from each sample were denatured in boiling water, separated by SDS/PAGE, and transferred onto nitrocellulose membranes. Blots were blocked 1 h with 5% nonfat dry milk in Tris-buffered saline (TBS), followed by overnight incubation with primary antibody. After washing with TBS, blots were incubated with goat anti-rabbit/mouse HRP-conjugated secondary antibody and visualized using ECL. The blots were quantitated by using Image-Pro Plus (Media Cybernetics). The primary antibodies were goat anti-AQP2 antibody, rabbit anti-PRR-N antibody, and rabbit anti-FZD8 antibody (all from Santa Cruz), rabbit anti-V2R antibody (Abcam), and goat anti-β-catenin antibody (Novus).

Another assay deals with AQP2. Briefly: AQP2 expression in primary rat IMCD cells (quantitative RT-PCR, immunoblotting). The assay is classed as cell-based. The following applies: inhibitor 10 μM pretreatment 1 h, then 10 nM sPRR-His 24 h. In general terms: Immunoblotting shows a protein as a band on a membrane.
Another assay has as its system Wnt/β-catenin pathway. Briefly: Acute and chronic responses to AVP (cAMP, AQP2) in primary rat IMCD cells. The assay is classed as cell-based. As to conditions: XAV pretreatment 1 h. Here is the method:
FIGS. 5A-5F show a distinct role of the Wnt/β-catenin pathway in the acute and chronic responses to AVP in primary rat IMCD cells. The IMCD cells were pretreated for 1 h with XAV and were treated for 30 min or 24 h with 10 nM AVP. (A) At 30 min of AVP treatment, the medium was assayed for cAMP using ELISA (n=6 per group). (B and C) Membrane fraction (n=6 per group) (B) and cytosolic fraction (n=6 per group) (C) were subjected to immunoblotting analysis of AQP2. (D-F) At 24 h, medium cAMP was determined (n=6 per group) (D), whole-cell lysates were subjected to immunoblotting analysis of AQP2 (n=6 per group) (E), and total RNA was subjected to quantitative RT-PCR analysis of AQP2 mRNA (n=4 per group) (F). Data are shown as mean±SE; *P<0.05 vs. control; #P<0.05 vs. AVP alone.
For sPRR signaling studies, primary IMCD cells were prepared from 4-wk-old SD rats as previously described (35). The cells were grown in Transwell plates (catalog no. 29442-074; VWR International) with DMEM/F-12 medium containing 10% (vol/vol) FBS, 0.5 μM 8-Br-cAMP, 130 mM NaCl, and 80 mM urea. […] At the end of the experiments, the medium was collected for biochemical assays.
The membrane and cytosolic fractions of proteins were extracted using a kit according to the manufacturer's instructions (catalog no. BSP002; Bio Basic Inc.).

SMILES strings stand for the structures.

Turning to `Cc1ccccc1C(=O)Nc1ccc(C(=O)N2CCCC(N(C)C)c3ccccc32)cc1` (centres unmarked) [OPC], in the assay on mouse model of NDI (C57/BL6 mice, OPC via gavage 30 mg·kg^−1·d^−1 for 3 d), the “water intake, urine output, urine osmolality” value was “polydipsia, polyuria, and hypoosmotic urine”. Also, the “urinary sPRR excretion” value in the assay with mouse model of NDI (OPC-treated mice) was “suppressed significantly”.
Regarding `Oc1nc(-c2ccc(C(F)(F)F)cc2)nc2c1CSCC2` [XAV939], the “WD-induced increase of AQP2 protein abundance in renal cortex and inner medulla” value in the assay with Sprague-Dawley (SD) rats (WD, immunoblotting) is “attenuated significantly”. In the assay with Sprague-Dawley (SD) rats (basal conditions, administration over 48 h), the “water balance (urine volume, water intake, urine osmolality)” value was “polyuria, polydipsia, and hypoosmotic urine”. Besides, in the assay with Sprague-Dawley (SD) rats (during 48-h WD), the “plasma osmolality and hematocrit (Hct)” value is reported as “greater increases”; the urine osmolality result was “decreased”; the urine volume entry was “increased”; the weight loss entry is listed as “exaggerated”. Besides, the “sPRR-His-induced AQP2 protein expression, effect of inhibitor” value in the assay with AQP2 is “blunted”. For the same compound, in the assay on Wnt/β-catenin pathway (30-min exposure to 10 nM AVP), the “rapid rise of cAMP and redistribution of AQP2 from the cytosol to the membrane in response to AVP” value is “unaffected”. Moreover, the “AVP-induced increases in cAMP level, total protein abundance and mRNA expression of AQP2” value with Wnt/β-catenin pathway (24 h 10 nM AVP) is listed as “effectively attenuated”.

For the origin of these results see patent publication US11911442B2, “Use of soluble pro(renin) receptor to treat metabolic disorders and related conditions” (priority 2017, dated 2024).
